Measurements as given in ChEMBL document CHEMBL2429821, “A Casein kinase 1/Checkpoint kinase 1 pyrazolo-pyridine protein kinase inhibitor as novel activator of the p53 pathway” (Bioorg Med Chem Lett, 2013).

Experiments:
[1] = target: MAP kinase-interacting serine/threonine-protein kinase 1 (Homo sapiens) (UniProt Q9BUB5); experiment: Inhibition of human MNK1 assessed as residual activity at 10 uM relative to control
Oryctolagus cuniculus = organism: Oryctolagus cuniculus; experiment: Inhibition of rabbit MKK1 assessed as residual activity at 1 uM relative to control
[2] = target: Calcium/calmodulin-dependent protein kinase type 1 (Homo sapiens) (UniProt Q14012); experiment: Inhibition of human CAMK1 assessed as residual activity at 1 uM relative to control
Sequence of Calcium/calmodulin-dependent protein kinase type 1 (Homo sapiens) (Q14012 whole entry, looked up): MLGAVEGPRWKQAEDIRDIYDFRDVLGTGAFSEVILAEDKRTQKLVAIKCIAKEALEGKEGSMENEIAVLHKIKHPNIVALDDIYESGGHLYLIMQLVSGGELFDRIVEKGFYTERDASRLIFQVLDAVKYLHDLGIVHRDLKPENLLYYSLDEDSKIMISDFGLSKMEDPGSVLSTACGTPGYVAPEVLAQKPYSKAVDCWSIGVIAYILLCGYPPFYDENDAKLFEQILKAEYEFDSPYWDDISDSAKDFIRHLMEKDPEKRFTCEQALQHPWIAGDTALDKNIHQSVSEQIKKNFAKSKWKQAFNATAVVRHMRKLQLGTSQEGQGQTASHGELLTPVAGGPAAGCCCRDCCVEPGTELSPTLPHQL

[3] = target: T1, Serine/threonine-protein kinase Chk1 (Homo sapiens) (UniProt O14757); experiment: Inhibition of human CHK1 assessed as residual activity at 1 uM relative to control
T1 sequence (whole entry): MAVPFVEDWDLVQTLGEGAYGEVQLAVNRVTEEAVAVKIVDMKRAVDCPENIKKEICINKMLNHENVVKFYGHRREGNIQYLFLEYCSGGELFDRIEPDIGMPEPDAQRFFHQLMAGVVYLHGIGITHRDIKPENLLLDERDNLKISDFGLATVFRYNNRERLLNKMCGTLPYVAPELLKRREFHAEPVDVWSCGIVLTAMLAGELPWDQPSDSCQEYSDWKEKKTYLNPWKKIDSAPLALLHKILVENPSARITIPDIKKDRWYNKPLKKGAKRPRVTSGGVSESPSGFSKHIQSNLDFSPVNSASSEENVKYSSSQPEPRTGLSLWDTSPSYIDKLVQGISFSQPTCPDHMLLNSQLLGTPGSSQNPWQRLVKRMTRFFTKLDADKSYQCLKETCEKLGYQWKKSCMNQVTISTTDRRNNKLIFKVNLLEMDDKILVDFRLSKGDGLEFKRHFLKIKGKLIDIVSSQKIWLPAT

[4] = target: Serine/threonine-protein kinase pim-1 (Homo sapiens) (UniProt P11309); experiment: Inhibition of human PIM1 assessed as residual activity at 1 uM relative to control
Sequence of Serine/threonine-protein kinase pim-1 (Homo sapiens) (P11309 whole entry, looked up): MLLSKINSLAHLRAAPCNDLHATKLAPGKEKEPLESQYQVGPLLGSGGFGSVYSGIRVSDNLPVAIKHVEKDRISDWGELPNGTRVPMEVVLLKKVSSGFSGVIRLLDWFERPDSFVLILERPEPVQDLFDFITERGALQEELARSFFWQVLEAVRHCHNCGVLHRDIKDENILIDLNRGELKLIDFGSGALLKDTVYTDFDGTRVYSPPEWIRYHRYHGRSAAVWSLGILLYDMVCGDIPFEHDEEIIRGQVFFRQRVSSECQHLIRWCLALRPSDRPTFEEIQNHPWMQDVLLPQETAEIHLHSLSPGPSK

[5] = target: T2, Serine/threonine-protein kinase Sgk1 (Homo sapiens) (UniProt O00141); experiment: Inhibition of human SGK1 assessed as residual activity at 10 uM relative to control
T2 sequence (whole entry): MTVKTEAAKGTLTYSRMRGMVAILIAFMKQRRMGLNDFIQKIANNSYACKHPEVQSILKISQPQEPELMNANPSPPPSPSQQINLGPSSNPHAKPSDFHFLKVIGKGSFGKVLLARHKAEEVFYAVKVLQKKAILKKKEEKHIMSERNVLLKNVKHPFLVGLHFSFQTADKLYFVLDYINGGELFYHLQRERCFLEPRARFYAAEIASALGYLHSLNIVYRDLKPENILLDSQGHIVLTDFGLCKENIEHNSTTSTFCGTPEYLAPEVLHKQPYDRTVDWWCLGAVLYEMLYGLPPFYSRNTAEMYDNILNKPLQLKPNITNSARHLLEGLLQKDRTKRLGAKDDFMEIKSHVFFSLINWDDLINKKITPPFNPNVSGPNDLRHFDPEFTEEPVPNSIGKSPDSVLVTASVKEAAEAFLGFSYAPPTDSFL

[6] = target: T3, Serine/threonine-protein kinase D1 (Homo sapiens) (UniProt Q15139); experiment: Inhibition of human PKD1 assessed as residual activity at 10 uM relative to control
T3 sequence (whole entry): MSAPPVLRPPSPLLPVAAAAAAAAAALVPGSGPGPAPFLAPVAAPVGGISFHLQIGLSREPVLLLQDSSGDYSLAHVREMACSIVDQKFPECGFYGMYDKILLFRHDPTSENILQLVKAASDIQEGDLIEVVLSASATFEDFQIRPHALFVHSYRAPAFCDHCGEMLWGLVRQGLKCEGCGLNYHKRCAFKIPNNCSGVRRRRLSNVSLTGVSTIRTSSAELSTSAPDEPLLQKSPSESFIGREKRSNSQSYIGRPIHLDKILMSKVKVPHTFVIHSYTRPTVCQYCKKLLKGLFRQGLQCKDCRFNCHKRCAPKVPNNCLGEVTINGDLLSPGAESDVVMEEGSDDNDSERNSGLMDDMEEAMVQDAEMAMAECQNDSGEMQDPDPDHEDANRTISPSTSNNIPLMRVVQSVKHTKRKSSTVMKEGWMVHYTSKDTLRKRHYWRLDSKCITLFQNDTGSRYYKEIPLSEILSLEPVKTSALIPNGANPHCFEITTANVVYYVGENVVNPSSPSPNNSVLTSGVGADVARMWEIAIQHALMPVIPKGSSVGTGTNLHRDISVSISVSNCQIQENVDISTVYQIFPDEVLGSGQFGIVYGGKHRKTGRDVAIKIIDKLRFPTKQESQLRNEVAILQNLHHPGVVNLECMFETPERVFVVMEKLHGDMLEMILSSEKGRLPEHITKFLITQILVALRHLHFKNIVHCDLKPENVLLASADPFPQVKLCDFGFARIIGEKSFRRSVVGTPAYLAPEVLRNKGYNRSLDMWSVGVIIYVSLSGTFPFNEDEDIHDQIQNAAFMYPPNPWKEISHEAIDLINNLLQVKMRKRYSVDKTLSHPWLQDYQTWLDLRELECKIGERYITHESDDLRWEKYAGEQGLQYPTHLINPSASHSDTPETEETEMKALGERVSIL

[7] = target: Tyrosine-protein kinase CSK (Homo sapiens) (UniProt P41240); experiment: Inhibition of human CSK assessed as residual activity at 1 uM relative to control
Sequence of Tyrosine-protein kinase CSK (Homo sapiens) (P41240 2-450 limits assumed): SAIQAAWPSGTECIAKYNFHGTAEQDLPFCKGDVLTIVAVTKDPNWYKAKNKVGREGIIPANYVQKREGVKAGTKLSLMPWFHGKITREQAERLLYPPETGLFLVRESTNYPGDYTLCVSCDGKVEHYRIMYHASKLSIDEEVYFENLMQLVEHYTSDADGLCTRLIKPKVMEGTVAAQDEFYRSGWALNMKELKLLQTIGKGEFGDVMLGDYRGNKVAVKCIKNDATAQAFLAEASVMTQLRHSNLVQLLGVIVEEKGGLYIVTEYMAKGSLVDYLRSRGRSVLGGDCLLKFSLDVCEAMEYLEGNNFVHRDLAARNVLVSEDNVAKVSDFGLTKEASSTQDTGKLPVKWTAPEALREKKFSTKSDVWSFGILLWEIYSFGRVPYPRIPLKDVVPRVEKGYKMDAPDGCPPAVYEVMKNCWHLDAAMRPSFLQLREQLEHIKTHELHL

[8] = target: Serine/threonine-protein kinase Nek6 (Homo sapiens) (UniProt Q9HC98); experiment: Inhibition of human NEK6 assessed as residual activity at 1 uM relative to control
Sequence of Serine/threonine-protein kinase Nek6 (Homo sapiens) (Q9HC98 whole entry): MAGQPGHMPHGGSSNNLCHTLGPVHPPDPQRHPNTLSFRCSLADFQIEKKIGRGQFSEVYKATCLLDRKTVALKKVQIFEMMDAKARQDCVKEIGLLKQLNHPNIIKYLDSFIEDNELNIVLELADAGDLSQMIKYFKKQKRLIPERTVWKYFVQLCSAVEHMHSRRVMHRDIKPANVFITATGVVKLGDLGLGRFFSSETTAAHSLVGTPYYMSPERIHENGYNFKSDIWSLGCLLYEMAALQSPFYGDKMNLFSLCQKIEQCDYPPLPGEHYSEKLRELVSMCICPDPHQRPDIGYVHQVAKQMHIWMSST

[9] = target: Serine/threonine-protein kinase Chk2 (Homo sapiens) (UniProt O96017); experiment: Inhibition of human CHK2 assessed as residual activity at 1 uM relative to control
Sequence of Serine/threonine-protein kinase Chk2 (Homo sapiens) (O96017 whole entry): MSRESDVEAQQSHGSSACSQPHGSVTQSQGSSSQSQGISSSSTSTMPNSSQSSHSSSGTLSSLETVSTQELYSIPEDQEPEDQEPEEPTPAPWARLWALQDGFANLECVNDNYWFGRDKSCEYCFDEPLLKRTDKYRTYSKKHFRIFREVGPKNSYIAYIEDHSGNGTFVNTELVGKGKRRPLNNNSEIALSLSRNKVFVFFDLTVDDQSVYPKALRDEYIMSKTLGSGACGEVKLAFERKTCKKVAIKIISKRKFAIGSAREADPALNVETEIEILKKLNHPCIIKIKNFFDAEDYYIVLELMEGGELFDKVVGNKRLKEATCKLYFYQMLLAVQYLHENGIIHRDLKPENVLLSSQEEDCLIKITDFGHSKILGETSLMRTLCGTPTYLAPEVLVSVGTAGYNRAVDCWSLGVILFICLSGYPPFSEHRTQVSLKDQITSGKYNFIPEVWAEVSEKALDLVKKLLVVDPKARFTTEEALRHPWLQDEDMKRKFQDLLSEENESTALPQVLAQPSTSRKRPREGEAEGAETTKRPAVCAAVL

[10] = target: T4, Protein kinase C zeta type (Homo sapiens) (UniProt Q05513); experiment: Inhibition of human PKCzeta assessed as residual activity at 10 uM relative to control
T4 sequence (whole entry): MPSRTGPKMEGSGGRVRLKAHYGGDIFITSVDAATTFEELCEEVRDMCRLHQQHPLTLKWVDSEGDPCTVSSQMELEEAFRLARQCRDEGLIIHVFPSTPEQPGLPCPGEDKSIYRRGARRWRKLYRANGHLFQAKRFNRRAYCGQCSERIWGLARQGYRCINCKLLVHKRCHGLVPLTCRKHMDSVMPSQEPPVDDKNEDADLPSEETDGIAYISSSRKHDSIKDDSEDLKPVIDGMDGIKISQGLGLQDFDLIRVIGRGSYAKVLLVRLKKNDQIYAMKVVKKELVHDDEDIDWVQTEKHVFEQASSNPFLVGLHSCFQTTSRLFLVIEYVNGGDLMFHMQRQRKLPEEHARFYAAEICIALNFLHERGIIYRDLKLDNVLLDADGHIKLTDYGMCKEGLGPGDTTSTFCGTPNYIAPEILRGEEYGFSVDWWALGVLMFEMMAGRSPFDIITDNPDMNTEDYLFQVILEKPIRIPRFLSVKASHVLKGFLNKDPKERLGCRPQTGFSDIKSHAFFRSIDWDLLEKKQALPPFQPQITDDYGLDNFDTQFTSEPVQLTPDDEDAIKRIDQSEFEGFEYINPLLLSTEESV

Sequence of MAP kinase-interacting serine/threonine-protein kinase 1 (Homo sapiens) (Q9BUB5 whole entry, looked up): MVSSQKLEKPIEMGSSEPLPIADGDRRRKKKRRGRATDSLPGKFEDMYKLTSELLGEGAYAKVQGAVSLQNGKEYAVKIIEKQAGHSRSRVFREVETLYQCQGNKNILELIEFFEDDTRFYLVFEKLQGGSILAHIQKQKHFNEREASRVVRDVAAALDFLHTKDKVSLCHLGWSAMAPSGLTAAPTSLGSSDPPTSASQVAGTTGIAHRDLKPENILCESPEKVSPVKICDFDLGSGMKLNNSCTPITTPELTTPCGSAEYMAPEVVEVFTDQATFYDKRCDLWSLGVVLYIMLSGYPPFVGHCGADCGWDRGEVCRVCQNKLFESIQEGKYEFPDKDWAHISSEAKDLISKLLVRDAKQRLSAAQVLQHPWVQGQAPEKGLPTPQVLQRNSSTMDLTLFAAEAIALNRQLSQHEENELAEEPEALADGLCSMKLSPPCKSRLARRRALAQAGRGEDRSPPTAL

`CC(=O)Nc1cccc(-c2cnc3[nH]nc(C)c3c2)c1` was tested, and the Activity [1] was 19.3%, the Activity (Oryctolagus cuniculus) was 75.7% and the Activity [2] was 111%. For the same compound, the Activity [3] was 31.5%, the Activity [4] was 73.1% and the Activity [5] was 61.9%. For the same compound, the Activity [6] was 44.3%, the Activity [7] was 95.3% and the Activity [8] was 77.3%. For the same compound, the Activity [9] was 68.5% and the Activity [10] was 84.2%.

`CCCC(=O)Nc1n[nH]c2ncc(-c3cccnc3)cc12` gave an Activity [1] of 91%, an Activity (Oryctolagus cuniculus) of 90% and an Activity [2] of 93%. For the same compound, the Activity [3] was 92%, the Activity [4] was 89% and the Activity [5] was 82%. It also gave an Activity [6] of 99%, an Activity [7] of 91% and an Activity [8] of 86%. The Activity [9] was 96% and the Activity [10] was 77%.

For `CC(=O)Nc1nccc(-c2c(-c3ccccc3)noc2C)n1`, the Activity [1] was 102%, the Activity (Oryctolagus cuniculus) was 95.1% and the Activity [2] was 103%. It also gave an Activity [3] of 80.6%, an Activity [4] of 105% and an Activity [5] of 21.4%. It also gave an Activity [6] of 75.3%, an Activity [7] of 93.4% and an Activity [8] of 64.9%. It also gave an Activity [9] of 89.5% and an Activity [10] of 82%.
